Assay results: US6841361B1, “Methods of producing recombinant insulin from novel fused proteins” (Itoham Foods Inc., priority 1999, dated 2005)

Experiment: Plasma glucose level after subcutaneous injection of insulin in rabbits
Assay type: in vivo, Japanese Wister rabbit
Details: rabbit, 0.5 ml of 1 unit/ml
Method: For each insulin sample, an aliquot was taken from the fractions so that the insulin contents for both kinds of insulin calculated based on the main peak areas became same, and then dried.
The resulting solution (0.5 ml) was subcutaneously injected to the back of a Japanese Wister rabbit (Kbs:JW, […]). After the injection, blood was collected from the anterior auricular vein of the rabbit over a period of time. Each blood sample (0.45 ml) was added with a mix of glycolysis-inhibiting agents (NaF: 12.5 mg/ml, heparin-Na: 125 units/ml, EDTA-2Na: 48 mg/ml) ([…]]) and fully mixed. The mixed solution was centrifuged at 3,000 rpm for 15 min. at 5° C., and the supernatant was used as a plasma sample. For each plasma sample, the plasma glucose level was determined using a biochemical automated analyzer (CIBA-CORNING; Express PLUS), and the plasma insulin level was determined using EIA kit (Wako Pure Chemical Industries, Ltd.).

With “Novolin: a commercially available insulin, Novolin 40, (Novo Nordisk Pharma); insulin fractions re-purified by HPLC before testing” the “time course of the plasma glucose level after the injection of insulin” value (subcutaneous injection to the back, FIG. 9) was “showed the decrease in plasma glucose level” and the “plasma glucose level compared with ITOHAM insulin” value (subcutaneous, relative to ITOHAM insulin) was “slight lower plasma glucose level”.
